Results on 18 compounds are retold here after US20030194378A1, “Novel aerosol formulation containing a polar fluorinated molecule” (priority 2000, published 2003).

Data set [1] in a line: Miscibility or solubility of fluorinated molecules in propellants. The following applies: for Concentration (C, in brackets) at which the miscibility or solubility test was done, HFA-134a / Concentration (C, in brackets) at which the miscibility or solubility test was done, HFA-227: solutions below this are monophasic, not an upper limit; for Miscibility or solubility, HFA-134a: in propellant HFA-134a, at the concentration in brackets; for Miscibility or solubility, HFA-227: in propellant HFA-227, at the concentration in brackets.
Text: The fluorinated chemical was weighed in a clear PET vial. The vial was then crimped, and subsequently pressure filled with one of the propellants until the desired total weight was reached.
Solutions at concentrations below these limits are therefore monophasic. The concentrations quoted are not upper limits.

Data set [2] is described as follows: Solubility of drug compounds in 4HPFOH (optical, UV-Vis). It counts as physicochemical. How it is done: Although most drug compounds are insoluble in the fluorinated systems, in some instances it is possible to solubilise the drug.
Drug suspensions were prepared in sealed glass vials by weight. The suspensions were then allowed to rest over a couple of day to reach equilibrium. They were firstly assessed optically, and in the case of a possible solubility by UV-vis spectroscopy. The solutions were then filtered with 0.2 μm PTFE filters and studied by UV-Vis spectroscopy between 280 nm and 350 nm. A range of suspensions were prepared, to be able to reach saturation levels. Calibration curves were then drawn by plotting the absorbance as a function of concentration. The inflexion point at which the slope of the calibration plot changed was taken as the solubility limit. The experiment was carried out at least 3 times for each drug.

Data set [3] can be described thus: Solubility of selected excipients in 4HPFOH. The following applies: for Concentration % w/w (at which solubility in 4HPFOH was assessed): excipient in 4HPFOH; for Solubility or miscibility in 4HPFOH: excipient in 4HPFOH at the concentration of the same line, sonicated, heated, cooled.
Experimental: The second test carried out was to evaluate the solubility (or miscibility in the case of liquid samples) of some excipients in 4HPFOH.
The excipients were weighed in glass vials with a screw-on plastic cap. 4HPFOH was added at the required concentration, and the vial sealed with Teflon tape and the screw-on cap. The sample was sonicated and heated to quicken the solubilisation of the excipient. The vial was then allowed to cool down.

Where a name gives a salt, the structure may show the parent alone. Read-outs that look alike come from different tables or passages of the source.

Regarding `OCCC(F)(F)C(F)(F)C(F)(F)C(F)(F)C(F)(F)C(F)(F)F` [1H,1H,2H,2H Perfluorooctan-1-ol], in data set [1], the “Concentration (C, in brackets) at which the miscibility or solubility test was done, HFA-134a” value (“Concentration (C, in brackets) … HFA-134a” for short) was “(C <7.30% w/w)”; the “Concentration (C, in brackets) at which the miscibility or solubility test was done, HFA-227” value (“Concentration (C, in brackets) … HFA-227” below) was below 5.17 % w/w; the “Miscibility or solubility, HFA-134a” value is given as “Yes”; the “Miscibility or solubility, HFA-227” value is recorded as “Yes”.
Turning to `OCC(O)CC(F)(F)C(F)(F)C(F)(F)C(F)(F)C(F)(F)C(F)(F)F` (centres unmarked) [1H,1H,2H,3H,3H Perfluoro-1,2-nonandiol], in data set [1], the “Concentration (C, in brackets) … HFA-134a” value is recorded as “(C <4.84% w/w)”; the “Concentration (C, in brackets) … HFA-227” value is on record as below 3.71 % w/w; the “Miscibility or solubility, HFA-134a” value is reported as “Yes”; the “Miscibility or solubility, HFA-227” value is “Yes”.
For `OCC(F)(F)C(F)(F)C(F)(F)C(F)(F)C(F)(F)C(F)(F)C(F)(F)C(F)(F)F` [1H,1H, Perfluorononan-1-ol], in data set [1], the “Concentration (C, in brackets) … HFA-134a” value is on record as “(C <4.55% w/w)”; the “Concentration (C, in brackets) … HFA-227” value is recorded as below 4.15 % w/w; the “Miscibility or solubility, HFA-134a” value is on record as “Yes”; the “Miscibility or solubility, HFA-227” value is “Yes”.
`FC(OC(F)(F)C(F)(OC(F)(F)C(F)(OC(F)(F)C(F)(OC(F)(F)C(F)(F)C(F)(F)F)C(F)(F)F)C(F)(F)F)C(F)(F)F)C(F)(F)F` (centres unmarked) [2H Perfluoro-5,8,11-trimethyl-3,6,9,12-tetrafluoropropylether]: in data set [1], the “Concentration (C, in brackets) … HFA-134a” value was “(C <43.49% w/w)”; the “Concentration (C, in brackets) … HFA-227” value is on record as “(C <35.36% w/w)”; the “Miscibility or solubility, HFA-134a” value is “Yes”; the “Miscibility or solubility, HFA-227” value is “Yes”.
Consider `Cc1ccc(CCOCCNS(=O)(=O)CCCNCCc2ccc(O)c3nc(O)sc23)cc1` [3-[2-(4-hydroxy-2-oxo-3H-1,3-benzothiazol-7-yl)ethylamino]-N-[2-[2-(4-methylphenyl)ethoxy)ethyl]propansulphonamide], for which, in data set [2], the “Solubility in 4HPFOH” value is “less than 0.1 ppm(w/w)” and the “Solubility in 4HPFOH (in words)” value is “insoluble”.
Consider `CCCC1O[C@@H]2C[C@H]3[C@@H]4CCC5=CC(=O)C=C[C@]5(C)[C@H]4[C@@H](O)C[C@]3(C)[C@]2(C(=O)CO)O1` (some centres unmarked) [Budesonide], for which, in data set [2], the “Solubility in 4HPFOH (in words)” value is given as “soluble” and the “Solubility limit in 4HPFOH” value is on record as 0.219-0.246 % w/w.
On to `C[C@H](CCC(=O)O)[C@H]1CC[C@H]2[C@@H]3CC[C@@H]4C[C@H](O)CC[C@]4(C)[C@H]3C[C@H](O)[C@]12C` [Deoxycholic acid], for which, in data set [3], the “Concentration % w/w (at which solubility in 4HPFOH was assessed)” value (from here on “Concentration % w/w”) is on record as 0.90 % w/w and the “Solubility or miscibility in 4HPFOH” value is on record as “Yes”.
As to `CCCCC(CC)COC(=O)CC(C(=O)OCC(CC)CCCC)S(=O)(=O)[O-].[Na+]` (centres unmarked) [Dioctyl-sulfosuccinate sodium salt], in data set [3], the “Concentration % w/w” value was 0.096 % w/w and the “Solubility or miscibility in 4HPFOH” value was “Yes”.
Turning to `CCCCCCCCCCCC[N+](C)(C)C.[Br-]` [Dodecyltrimethyl Ammonium Bromide], in data set [3], the “Concentration % w/w” value worked out at 1.00 % w/w and the “Solubility or miscibility in 4HPFOH” value was “Yes”.
For `CCOC(=O)C(F)(F)C(F)(F)C(F)(F)C(F)(F)C(F)(F)C(F)(F)C(F)(F)C(F)(F)C(F)(F)C(F)F` [Ethyl 11H-Perfluoroundecanoate], in data set [1], the “Concentration (C, in brackets) … HFA-134a” value is listed as “(C <4.93% w/w)”; the “Concentration (C, in brackets) … HFA-227” value was below 4.43 % w/w; the “Miscibility or solubility, HFA-134a” value was “Yes”; the “Miscibility or solubility, HFA-227” value is reported as “Yes”.
Take `CCOC(=O)C(F)(F)C(F)(F)C(F)(F)C(F)(F)C(F)(F)C(F)(F)C(F)(F)C(F)(F)C(F)(F)C(F)(F)C(F)(F)F` [Ethyl Perfluoro n-Dodecanoate]: in data set [1], the “Concentration (C, in brackets) … HFA-134a” value is “(C <9.24% w/w)”; the “Concentration (C, in brackets) … HFA-227” value is given as “(C <41.15% w/w)”; the “Miscibility or solubility, HFA-134a” value is “Yes”; the “Miscibility or solubility, HFA-227” value was “Yes”.
Take `COc1ccc(CC(C)NCC(O)c2ccc(O)c(NC=O)c2)cc1` (centres unmarked) [Formoterol Fumarate Dihydrate]: in data set [2] (in 4HPFOH, equilibrated a couple of days), the “Solubility in 4HPFOH (in words)” value is “insoluble”.
As for `COC(=O)C(F)(F)C(F)(F)C(F)(F)C(F)(F)C(F)(F)C(F)(F)C(F)(F)C(F)(F)C(F)(F)F` [Methyl Perfluorodecanoate], in data set [1], the “Concentration (C, in brackets) … HFA-134a” value is “(C <42.63% w/w)”; the “Concentration (C, in brackets) … HFA-227” value is “(C <39.40% w/w)”; the “Miscibility or solubility, HFA-134a” value is listed as “Yes”; the “Miscibility or solubility, HFA-227” value is given as “Yes”.
For `COC(=O)C(F)(OC(F)(F)C(F)(OC(F)(F)C(F)(OC(F)(F)C(F)(OC(F)(F)C(F)(F)C(F)(F)F)C(F)(F)F)C(F)(F)F)C(F)(F)F)C(F)(F)F` (centres unmarked) [Methyl perfluoro 2,5,9,11-Tetramethyl 3,6,9,12 Tetraoxapentadecanoate], in data set [1], the “Concentration (C, in brackets) … HFA-134a” value was “(C <10.37% w/w)”; the “Concentration (C, in brackets) … HFA-227” value is reported as below 8.90 % w/w; the “Miscibility or solubility, HFA-134a” value is “Yes”; the “Miscibility or solubility, HFA-227” value is “Yes”.
For the compound `CCCCCCCCO[C@@H]1O[C@H](CO)[C@@H](O)[C@H](O)[C@H]1O` [N Octyl beta D Glucopyranoside], in data set [3], the “Concentration % w/w” value was 0.11 % w/w and the “Solubility or miscibility in 4HPFOH” value is recorded as “Yes”.
For `CCCCCCCCC[N+](C)(C)C.[Br-]` [Nonyltrimethyl Ammonium Bromide] the same measures were 0.96 % w/w and “Yes”.
With `O=C(OC(=O)C(F)(F)C(F)(F)C(F)(F)C(F)(F)C(F)(F)C(F)(F)F)C(F)(F)C(F)(F)C(F)(F)C(F)(F)C(F)(F)C(F)(F)F` [Perfluoroheptanoic anhydride], in data set [1], the “Concentration (C, in brackets) … HFA-134a” value was “(C <9.89% w/w)”; the “Concentration (C, in brackets) … HFA-227” value is given as below 9.13 % w/w; the “Miscibility or solubility, HFA-134a” value is recorded as “Yes”; the “Miscibility or solubility, HFA-227” value was “Yes”.
Turning to `CC(C)(C)NCC(O)c1cc(O)cc(O)c1` (centres unmarked) [Terbutaline Sulphate], in data set [2], the “Solubility in 4HPFOH” value is recorded as “less than 0.1 ppm(w/w)” and the “Solubility in 4HPFOH (in words)” value is “insoluble”.
